Laboratory results as given in US9804152B1, “Human ex vivo skin model and its use in methods of identifying modulators of skin inflammation” (The Procter & Gamble Company, priority 2012, dated 2017).

Assays:
Type in all cases: cell-based
[1] = tested on: endogenously inflamed ex vivo human skin sample; assay: Inhibitors of endogenous inflammation: IL-8/IL-6 secretion by ex vivo skin samples; conditions: for fold-regulation in secretion (expression) of IL-6 / fold-regulation in secretion (expression) of IL-8: endogenously inflamed skin; for IL-8 expression: not induced, untreated 1045 pg/ml; for inhibition of endogenous inflammation, conclusion in words: IL-8 as marker; for IL-8 secretion: endogenously inflamed skin sample, without inhibitor about 2,600 pg/ml; for IL-8 secretion / IL-8 expression (secretion): day 3; for IL-8 expression (secretion): untreated (endogenous) skin sample
Description: (§1) This Example describes the materials and methods used in preparing ex vivo skin samples for use according to the methods disclosed herein. Materials used in preparation of ex vivo skin samples for use in the disclosed screening methods included: Dulbecco's Modified Eagle Medium (DMEM) plus Glutamax, antibiotic and antimycotics, 1× phosphate-buffered saline (PBS), 150×15 mm sterile culture dishes, sterile gauze 4×4, disposable safety scalpels, 4 mm disposable biopsy punch, 6-well cell-culture inserts, disinfected tweezers, cotton-tipped applicators, 6-well culture plates, ruled, disinfected cutting mat (12×12), scraper handle, tissue freezing medium, biopsy cassettes, frozen-tissue freezing vessels, 10% formalin, shipping containers for fixed tissue, and biohazard/sharps containers. Media was prepared in advance of the arrival of ex vivo skin. The skin arrived with the dermis (fat) side down on sterile DMEM soaked gauze in a sterile culture dish. The culture dish was taped shut and in a biohazard zip-lock baggie on an ice pack in a secondary container.
(§2) On arrival, the skin was removed from the bag and soaked in 3×DMEM media (3× refers to concentration of antibiotic and antimycotics) and stored at 4° C. for 1 hour. After 1 hour, the skin was removed from the 3×DMEM and rinsed with sterile 1×PBS. The skin was placed in a clean culture dish containing gauze soaked with 1×DMEM. The sample was put in culture the same day as arrival. If necessary, however, the ex vivo skin samples can be stored at 4° C. overnight.
(§3) In preparation for culture, the following was performed: on a cutting mat, the skin was flipped over so that the epidermis was down and the subcutis (fat) was exposed. The fat was removed with a disposable scalpel by carefully grasping one corner of the skin with sterile serrated forceps and scraping the fat away with the blade held at a 45° angle to the skin. After the fat was removed, the surgical edges were cut off with a scalpel using a scraper as a straight edge guide and to hold the skin in place. Using the scraper as a guide, the skin was cut into 1.25 cm (2×2 squares on grid) wide strips using a ruler to measure the width. The strip was rinsed in a 100 mm culture dish containing 1×PBS. The strips were cut into 1.25 cm^2 squares and placed in a 100 mm culture dish on 1×DMEM-soaked gauze until they were put into culture 30 minutes later.
(§4) Culture plates were prepared that included 2.5 ml of media or media with treatment (e.g., a candidate modulator, an inflammation inducer, and/or an inhibitor of inflammation) in each well of a 6-well plate. One Millicell culture insert was added to each well and 100 μl of 1× DMEM was put in the center of each insert membrane. Squares of skin tissue were selected randomly and placed into each of the inserts (one piece of skin per insert), on top of the media on the membrane. The plates were stored at 33° C., with fresh media changes daily. As a control, baseline tissue measurements were collected from excess waste (cryogenics were used for snap-freezing). Baseline biopsy collection included two 4 mm punches for an MTT colorimetric assay (described below); one 4 mm punch was snap-frozen in OCT tissue compound for fresh histology; one 4 mm punch was fixed in 10% formalin and sent out for paraffin embedding. Expression measurements of inflammation marker genes were performed using PCR and primers appropriate to the known sequence of the gene(s) of interest.
(§5) Culturing and treatment of the ex vivo skin model comprised replicates of n=5. Before experimental treatment, compounds (e.g., a candidate modulator, an inflammation inducer, or a suppressor of inflammation) were solubilized in appropriate solvents (including PBS, media, alcohol, and DMSO). Appropriate dilutions were made for treatment and 15 ml of media was used per plate per day for treatment, with 2.5 ml of media per well under the cell culture insert. Media was pre-warmed and changed every day during the experiment.

[2] = tested on: induced inflamed ex vivo human skin sample (IL-17 + IL-22); assay: Inhibitors of IL-17/IL-22-induced inflammation: IL-8 secretion by ex vivo skin samples; conditions: for IL-8 expression (secretion): IL-17/IL-22-induced inflammation, day 3, induced alone about 3,800 pg/ml; for IL-8 expression: induced by IL-17 (200 ng/ml)/IL-22 (20 ng/ml), day 4, induced alone 1798 pg/ml; for inhibition of IL-17/IL-22 induced inflammation, conclusion in words: IL-8 as marker
[3] = tested on: endogenously inflamed ex vivo human skin sample; assay: Inhibitors of endogenous inflammation: inflammation marker gene expression in ex vivo skin samples; conditions: 10 μM clobetasol
Description: as §1, §2, §3, §4
as §5, with “experiment. […]” for “experiment.”

[4] = tested on: induced inflamed ex vivo human skin sample (IL-17 + IL-22); assay: Inhibitors of IL-17/IL-22-induced inflammation: inflammation marker gene expression in ex vivo skin samples
Description: as §1, §2, §3, §4
as §5, with “experiment. […]” for “experiment.”

[5] = tested on: ex vivo human skin sample; assay: Inducers of inflammation: inflammation marker secreted into the media by ex vivo skin samples (ELISA); conditions: IL-1β 10 ng/ml on first four days of eight-day experiment
Description: as §1, §2
In preparation for culture, the following was performed: on a cutting mat, the skin was flipped over so that the epidermis was down and the subcutis (fat) was exposed. The fat was removed with a disposable scalpel by carefully grasping one corner of the skin with sterile serrated forceps and scraping the fat away with the blade held at a 45° angle to the skin. After the fat was removed, the surgical edges were cut off with a scalpel using a scraper as a straight edge guide and to hold the skin in place. […]

[6] = tested on: ex vivo human skin sample; assay: Inducers of inflammation: inflammation marker gene expression in ex vivo skin samples (PCR)
Description: as §1, §2, §3, §4, §5

[7] = endogenously inflamed, 0.6 nM betamethasone, 0.08 μM hydrocortisone, 30 μM ketoprofen, 35 μM arlatone

C[C@H]1C[C@H]2[C@@H]3CCC4=CC(=O)C=C[C@]4(C)[C@@]3(F)[C@@H](O)C[C@]2(C)[C@@]1(O)C(=O)CCl [clobetasol]
fold-regulation in secretion (expression) of IL-6 ([1]; 10 μM clobetasol, donor 1 of 5): −3.28 fold | fold-regulation in secretion (expression) of IL-8 ([1]; 10 μM clobetasol, donor 1 of 5): −2.72 fold | fold-regulation in secretion (expression) of IL-6 ([1]; 10 μM clobetasol, donor 2 of 5): −3.55 fold | fold-regulation in secretion (expression) of IL-8 ([1]; 10 μM clobetasol, donor 2 of 5): −2.72 fold | fold-regulation in secretion (expression) of IL-6 ([1]; 10 μM clobetasol, donor 3 of 5): −8.69 fold | fold-regulation in secretion (expression) of IL-8 ([1]; 10 μM clobetasol, donor 3 of 5): −3.68 fold | fold-regulation in secretion (expression) of IL-6 ([1]; 10 μM clobetasol, donor 4 of 5): −5.70 fold | fold-regulation in secretion (expression) of IL-8 ([1]; 10 μM clobetasol, donor 4 of 5): −3.89 fold | fold-regulation in secretion (expression) of IL-6 ([1]; 10 μM clobetasol, donor 5 of 5): −2.20 fold | fold-regulation in secretion (expression) of IL-8 ([1]; 10 μM clobetasol, donor 5 of 5): −1.76 fold | IL-8 expression ([1]; 10 μM clobetasol, day 4): 50 pg/mL | IL-8 secreted into the media ([1]; 10 μM clobetasol, otherwise untreated sample, day 4, untreated about 5,800, 0.01% DMSO about 8,000 pg/ml): about 400 pg/ml | inhibition of endogenous inflammation, conclusion in words [1]: functions effectively as an inhibitor of both endogenous and induced inflammation | IL-8 secretion ([1]; topical 10 μM clobetasol): about 300 pg/ml | IL-8 expression (secretion) ([1]; topical clobetasol 1 μg/cm^2 skin surface, reduction from about 1,200 pg/ml): about 200 pg/ml | IL-8 expression (secretion) ([2]; 1 pg/cm^2 topical clobetasol): about 1,100 pg/cm^2 | IL-8 secreted into the media ([2]; 10 μM clobetasol with 200 ng/ml IL-17 and 20 ng/ml IL-22, day 4, induced without inhibitor about 13,600 pg/ml): about 4,400 pg/ml | IL-8 expression ([2]; 10 μM clobetasol): 65 pg/mL | inhibition of IL-17/IL-22 induced inflammation, conclusion in words [2]: functions effectively as an inhibitor of both endogenous and induced inflammation | gene expression of key inflammatory markers (nine marker genes, FIG. 8), in words ([3]; endogenous inflammation): appropriately inhibits gene expression of key inflammatory markers | S100A7 expression, in words [3, 7]: inhibited S100A7 expression | rank ordering of inflammation inhibitors based on IL-8 and IL-6 inhibition levels [3, 7]: most effective inhibitor | reduction in the three markers (IL-6, IL-8, and TNFa), rank ordering of efficacy in words (FIG. 15) [3, 7]: shows the greatest reduction | gene expression of IL-8, IL-6, S100A7 and DEFB4, in words ([3]; topical, day 3 (72 hours), 1.2 μg/ml 1,10-phenanthroline, endogenous inflammation): inhibited expression of IL-8, IL-6 and S100A7 | IL-6 expression relative to control values ([4]; 10 μM clobetasol with IL-17 (200 ng/ml) and IL-22 (20 ng/ml), induced alone about 6-fold): about 0.3 fold | IL-8 expression relative to the untreated control ([4]; 10 μM clobetasol with IL-17 (200 ng/ml) and IL-22 (20 ng/ml), induced alone about 16-fold): about 3 fold | S100A7 expression relative to the untreated control ([4]; 10 μM clobetasol with IL-17 (200 ng/ml) and IL-22 (20 ng/ml), induced alone about 34-fold): about 26 fold | DEFB4 expression relative to controls ([4]; 10 μM clobetasol with IL-17 (200 ng/ml) and IL-22 (20 ng/ml), induced alone about 800-fold): about 200 fold | gene expression of key inflammatory markers (nine marker genes, FIG. 8), in words ([4]; 10 μM clobetasol, IL-17 (200 ng/ml) + IL-22 (20 ng/ml) driven inflammation): appropriately inhibits gene expression of key inflammatory markers | IL-6 expression level in the presence of the inducers and clobetasol, in words ([4]; 10 μM clobetasol, IL-17 (200 ng/ml) and IL-22 (20 ng/ml)): lower than the IL-6 expression level in untreated skin cells | expression levels of IL-8, IL-6, S100A7 and DEFB4, in words ([4]; 10 μM clobetasol, inflammation induced by IL-17 (200 ng/ml) and IL-22 (20 ng/ml)): significantly reduced expression levels

zinc pyrithione [ZPT]
inhibition of endogenous inflammation, conclusion in words [1]: did not significantly inhibit endogenous inflammation | IL-8 expression (secretion) ([1]; topical 0.4 μg/cm^2 zinc pyrithione, without inhibitor about 1,200 pg/ml): about 2,000 pg/ml | IL-8 expression (secretion) ([2]; 0.4 μg/cm^2 topical ZPT): about 2,300 pg/ml | inhibition of IL-17/IL-22 induced inflammation, conclusion in words [2]: did inhibit IL-17. IL-22 induced inflammation

IL-1β: pro-inflammatory cytokine used as inducer of inflammation
TNF-α expression (amount of biomarker present in the media) ([5]; increase from about 65 pg/ml): about 120 pg/ml | IL-6 expression (amount of biomarker present in the media) ([5]; increase from an average of about 8.2 ng/ml): ≤ 12.3 ng/mL | induction of inflammation in ex vivo skin samples, in words [6]: shown to induce inflammation in ex vivo skin samples | fold-change in IL-8 expression ([6]; 100 pg/ml IL-1β, after 1 day): 3.28 fold | fold-change in TNF-α expression ([6]; 100 pg/ml IL-1β, after 1 day): −1.21 fold | fold-change in IL-8 expression ([6]; 100 pg/ml IL-1β, after 2 days): 2.58 fold | fold-change in TNF-α expression ([6]; 100 pg/ml IL-1β, after 2 days): 1.34 fold | fold-change in IL-8 expression ([6]; 100 pg/ml IL-1β, after 3 days): 7.88 fold | fold-change in TNF-α expression ([6]; 100 pg/ml IL-1β, after 3 days): 1.37 fold | fold-change in IL-8 expression ([6]; 100 pg/ml IL-1β, after 4 days): 5.47 fold | fold-change in TNF-α expression ([6]; 100 pg/ml IL-1β, after 4 days): 2.67 fold | fold-change in IL-8 expression ([6]; 100 pg/ml IL-1β, after 6 days): 2.42 fold | fold-change in TNF-α expression ([6]; 100 pg/ml IL-1β, after 6 days): −1.29 fold | fold-change in IL-8 expression ([6]; 100 pg/ml IL-1β, after 10 days): 9.02 fold | fold-change in TNF-α expression ([6]; 100 pg/ml IL-1β, after 10 days): 1.19 fold | HMGCR expression relative to untreated controls, at termination ([6]; 100 pg/ml IL-1β, end of 10-day experiment): about 0.8 fold | ceramide synthase 3, increase in expression ([6]; IL-1β, both 10 pg/ml and 100 pg/ml, day 10): ~1.5 fold

IL-17: pro-inflammatory cytokine used as inducer of inflammation
induction of inflammation in ex vivo skin samples, in words [6]: shown to induce inflammation in ex vivo skin samples

CC(C(=O)O)c1cccc(C(=O)c2ccccc2)c1 (centres unmarked) [ketoprofen]
CALML5 expression, in words [3, 7]: slightly inhibiting expression | FLG expression, in words [3, 7]: slightly inhibited expression | rank ordering of inflammation inhibitors based on IL-8 and IL-6 inhibition levels [3, 7]: followed by betamethasone, hydrocortisone, ketoprofen and arlatone | reduction in the three markers (IL-6, IL-8, and TNFa), rank ordering of efficacy in words (FIG. 15) [3, 7]: less robust

c1cnc2c(c1)ccc1cccnc12 [1,10-phenanthroline]
IL-8 secretion ([1]; topical 1.2 μg/ml 1,10-phenanthroline): about 900 pg/ml

S=[Se]=S [selenium sulfide]
IL-8 secretion, in words ([1]; selenium sulfide 0.04-25 μM (0.04, 0.2, 1, 5, 25 μM), endogenous inflammation, dose response): decreased secretion levels of IL-8

C[C@]12CCC(=O)C=C1CC[C@@H]1[C@@H]2[C@@H](O)C[C@@]2(C)[C@H]1CC[C@]2(O)C(=O)CO [hydrocortisone]
rank ordering of inflammation inhibitors based on IL-8 and IL-6 inhibition levels [3, 7]: followed by betamethasone, hydrocortisone, ketoprofen and arlatone | reduction in the three markers (IL-6, IL-8, and TNFa), rank ordering of efficacy in words (FIG. 15) [3, 7]: less robust

O=c1cc(-c2ccc(O)cc2)oc2cc(O)cc(O)c12 [apigenin]
IL-8 expression ([1]; 25 μM apigenin, day 4): 106 pg/mL | inhibition of endogenous inflammation, conclusion in words [1]: functions effectively in inhibiting endogenous inflammation | IL-8 expression ([2]; 25 μM apigenin): 1276 pg/mL | inhibition of IL-17/IL-22 induced inflammation, conclusion in words [2]: does not appear to function effectively to inhibit induced inflammation
